In patent publication US20060241114A1, “Derivatives of azasugars as anticancer agents” (priority 2003, published 2006):

Assays:
[1] = system: MCF7ADR (adriamycin resistant breast adenocarcinoma); test: In vitro growth inhibition screen (sulphorhodamine B), MCF7ADR; format: cell-based, human; conditions: MCF7ADR cells, incubated for 48 hours, sulphorhodamine B dye; read-out: GI50 (concentration which inhibits the cell growth by 50%), MCF7ADR Adriamycin Resistant Breast adenocarcinoma
Protocol: (§1) Each agent was tested over a broad concentration range (ten-fold dilutions starting from ≧100 μM to 10 nM) against 6 human cancer cell lines which was comprised of different tumor types. These are DU145 (prostate carcinoma), HT29 (colorectal adenocarcinoma), LOX (melanoma), MCF7 (breast adenocarcinoma), MCF7ADR (adriamycin resistant breast adenocarcinoma), and U251 (human glioblastoma). A standard compound doxorubicin was tested in each assay as a positive control. The cells were maintained in growing condition in RPMI 1640 medium containing 10% fetal calf serum and incubated at 37° C. under 5% CO2 atmosphere. All cell lines were inoculated onto a series of standard 96-well microtitre plate on day zero, followed by twenty four-hour incubation in the absence of test compound. The inoculation densities in the screen were as per Monk et al., (1991) J. Natl. Cancer Inst., 83, 757-766. All NCEs were dissolved in DMSO and diluted further in culture medium. An aliquot of each dilution was added to the growing cells in 96 well plates and incubated for 48 hours. After incubation, the assay was terminated by adding 50 μL of trichloroacetic acid (TCA) and incubating at 4° C. for 30 min. The precipitated cells were washed and stained with sulphorhodamine B dye for 30 min and the excess dye was washed off with acetic acid. Adsorbed dye was solubilised in Tris base (alkaline pH) and quantitated by measuring the OD at […] in ELISA READER. GI50 (concentration which inhibits the cell growth by 50%) was calculated according to Boyd and Paull, (1995) Drug Dev. Res., 34, 91-109.

[2] = system: DU145 (prostate carcinoma); test: In vitro growth inhibition screen (sulphorhodamine B), DU145; format: cell-based, human; conditions: DU145 cells, incubated for 48 hours, sulphorhodamine B dye; read-out: GI50 (concentration which inhibits the cell growth by 50%), DU145 Prostate carcinoma
Protocol: as §1

[3] = system: U251 (human glioblastoma); test: In vitro growth inhibition screen (sulphorhodamine B), U251; format: cell-based; conditions: U251 cells, incubated for 48 hours, sulphorhodamine B dye; read-out: GI50 (concentration which inhibits the cell growth by 50%), U251 Human glioblastoma astrocytoma
Protocol: as §1

[4] = system: MCF7 (breast adenocarcinoma); test: In vitro growth inhibition screen (sulphorhodamine B), MCF7; format: cell-based, human; conditions: MCF7 cells, incubated for 48 hours, sulphorhodamine B dye; read-out: GI50 (concentration which inhibits the cell growth by 50%), MCF7 Breast adenocarcinoma
Protocol: as §1

[5] = system: HT29 (colorectal adenocarcinoma); test: In vitro growth inhibition screen (sulphorhodamine B), HT29; format: cell-based, human; conditions: HT29 cells, incubated for 48 hours, sulphorhodamine B dye; read-out: GI50 (concentration which inhibits the cell growth by 50%), HT29 Colorectal adenocarcinoma
Protocol: as §1

[6] = system: LOX (melanoma); test: In vitro growth inhibition screen (sulphorhodamine B), LOX; format: cell-based, human; conditions: LOX cells, incubated for 48 hours, sulphorhodamine B dye; read-out: GI50 (concentration which inhibits the cell growth by 50%), LOX Melanoma
Protocol: as §1

Row | GI50 [1] | GI50 [2] | GI50 [3] | GI50 [4] | GI50 [5] | GI50 [6] | Compound
1 | 348 µM | 82.2 µM | 206 µM | > 528 µM | 213 µM | 170 µM | CCCN1C(=O)[C@H](OCc2ccccc2)[C@@H](OCc2ccccc2)[C@H](OCc2ccccc2)[C@H]1CNC(=O)Nc1c(Cl)cc(Cl)cc1Cl [Compound No. 17, 2,3,4-Tri-O-benzyl-6-N-{[2,4,6-trichlorophenyl]aminocarbonylamino}-N-propyl-D-gluco-δ-lactam]
2 | 2.9 µM | 2.5 µM | 2.6 µM | 2 µM | 2.2 µM | 2 µM | CCCN1C(=O)[C@H](OCc2ccccc2)[C@@H](OCc2ccccc2)[C@H](OCc2ccccc2)[C@H]1CNC(=O)Nc1ccc(Cl)c(Cl)c1 [Compound No. 18, 2,3,4-Tri-O-benzyl-6-N-{[3,4-dichlorophenyl]aminocarbonylamino}-N-propyl-D-gluco-δ-lactam]
3 | > 592 µM | > 592 µM | > 592 µM | > 592 µM | > 592 µM | 81.8 µM | CCCN1C(=O)C(OCc2ccccc2)C(OCc2ccccc2)C(OCc2ccccc2)C1CNC(=O)Nc1ccc(Cl)cc1Cl [Compound No. 19, 2,3,4-Tri-O-benzyl-6-N-{[2,4-dichlorophenyl]aminocarbonylamino}-N-propyl-D-gluco-δ-lactam]
4 | 5.5 µM | 15.3 µM | 3.3 µM | 4.1 µM | 2.6 µM | 5.9 µM | CCCN1C(=O)C(OCc2ccccc2)C(OCc2ccccc2)C(OCc2ccccc2)C1CNC(=O)NC(C)C [Compound No. 20, 2,3,4-Tri-O-benzyl-6-N-{[isopropyl]aminocarbonylamino}-N-propyl-D-gluco-δ-lactam]
5 | 3.4 µM | 6.5 µM | 3.6 µM | 2.4 µM | 2 µM | 2.9 µM | CCCN1C(=O)[C@H](OCc2ccccc2)[C@@H](OCc2ccccc2)[C@H](OCc2ccccc2)[C@H]1CNC(=S)Nc1ccc(Cl)cc1 [Compound No. 21, 2,3,4-Tri-O-benzyl-6-N-{[4-chlorophenyl]aminothiocarbonylamino}-N-propyl-D-gluco-δ-lactam]
6 | 8.2 µM | 5.1 µM | 5.1 µM | 39.8 µM | 11.9 µM | 4.3 µM | CCCN1C(=O)[C@H](OCc2ccccc2)[C@@H](OCc2ccccc2)[C@H](OCc2ccccc2)[C@H]1CNC(=O)Nc1ccc(C(F)(F)F)cc1 [Compound No. 22, 2,3,4-Tri-O-benzyl-6-N-{[4-trifluoromethylphenyl]aminocarbonylamino}-N-propyl-D-gluco-δ-lactam]
7 | 94.4 µM | 55.3 µM | 62 µM | 74.8 µM | 37.7 µM | 87.4 µM | CCCN1C(=O)[C@H](OC(C)=O)[C@@H](OC(C)=O)[C@H](OC(C)=O)[C@H]1CNC(=O)Nc1ccc(OC)cc1 [Compound No. 32, 2,3,4-Tri-O-acetyl-6-N-{[4-methoxyphenyl]aminocarbonylamino}-N-propyl-D-gluco-δ-lactam]
8 | 56.8 µM | 52.7 µM | 47.1 µM | 34.1 µM | 24.1 µM | 25.1 µM | CCCN1C(=O)[C@H](OC(C)=O)[C@@H](OC(C)=O)[C@H](OC(C)=O)[C@H]1CNC(=O)Nc1ccccc1 [Compound No. 33, 2,3,4-Tri-O-acetyl-6-N-{[phenyl]aminocarbonylamino}-N-propyl-D-gluco-δ-lactam]
9 | 63.4 µM | 78.2 µM | 28.3 µM | 26.1 µM | 38.4 µM | 130 µM | CCCN1C(=O)C(OC(C)=O)C(OC(C)=O)C(OC(C)=O)C1CNC(=O)Nc1ccc(F)cc1 [Compound No. 34, 2,3,4-Tri-O-acetyl-6-N-{[4-fluorophenyl]aminocarbonylamino}-N-propyl-D-gluco-δ-lactam]
10 | 9.3 µM | 14 µM | 5.8 µM | 7.6 µM | 19.4 µM | 8 µM | CCCN1C(=O)[C@H](O[Si](C)(C)C)[C@@H](O[Si](C)(C)C)[C@H](O[Si](C)(C)C)[C@H]1CNC(=O)Nc1ccccc1 [Compound No. 35, 2,3,4-Tri-O-trimethylsilyl-6-N-{[phenyl]aminocarbonylamino}-N-propyl-D-gluco-δ-lactam]

The remaining lines, values behind:

Row | Compound | GI50 [1] | GI50 [2] | GI50 [3] | GI50 [4] | GI50 [5] | GI50 [6]
11 | CCCN1C(=O)[C@H](OCc2ccccc2)[C@@H](OCc2ccccc2)[C@H](OCc2ccccc2)[C@H]1CNC(=O)NC12CC3CC(CC(C3)C1)C2 [Compound No. 23, 2,3,4-Tri-O-benzyl-6-N-{[1-adamantyl]aminocarbonylamino}-N-propyl-D-gluco-δ-lactam] | 26 µM | 50 µM | 4.2 µM | 5.6 µM | 28.7 µM | 35.7 µM
12 | CCCN1C(=O)[C@H](O)[C@@H](O)[C@H](O)[C@H]1CNC(=O)Nc1ccccc1 [Compound No. 24, N-Propyl-6-N-{[phenyl]aminocarbonylamino}-D-gluco-δ-lactam] | 262 µM | 296 µM | 231 µM | 157 µM | 213 µM | 169 µM
13 | CCCN1C(=O)[C@H](O)[C@@H](O)[C@H](O)[C@H]1CNC(=O)Nc1ccccc1C(F)(F)F [Compound No. 25, 6-N-{[2-Trifluoromethylphenyl]aminocarbonylamino}-N-propyl-D-gluco-δ-lactam] | 228 µM | 386 µM | 278 µM | 190 µM | 311 µM | 94.6 µM
14 | CCCN1C(=O)[C@H](O)[C@@H](O)[C@H](O)[C@H]1CNC(=O)Nc1ccc(C)cc1 [Compound No. 26, 6-N-{[p-Tolyl]aminocarbonylamino}-N-propyl-D-gluco-δ-lactam] | 235 µM | 278 µM | 520 µM | 136 µM | 209 µM | 116 µM
15 | CCCN1C(=O)[C@H](O)[C@@H](O)[C@H](O)[C@H]1CNC(=O)Nc1ccc(OC)cc1 [Compound No. 27, 6-N-{[p-Methoxyphenyl]aminocarbonylamino}-N-propyl-D-gluco-δ-lactam] | 481 µM | 413 µM | 323 µM | 214 µM | 232 µM | 193 µM
16 | CCCN1C(=O)[C@H](O)[C@@H](O)[C@H](O)[C@H]1CNC(=O)Nc1ccc(N)cc1 [Compound No. 28, 6-N-{[p-Aminophenyl]aminocarbonylamino}-N-propyl-D-gluco-δ-lactam] | 194 µM | 288 µM | 557 µM | 106 µM | 242 µM | 136 µM
17 | CCCN1C(=O)[C@H](O)[C@@H](O)[C@H](O)[C@H]1CNC(=O)Nc1ccc(F)cc1 [Compound No. 29, 6-N-{[4-Fluorophenyl]aminocarbonylamino}-N-propyl-D-gluco-δ-lactam] | 165 µM | 280 µM | 87 µM | 85.8 µM | 58.6 µM | 290 µM
18 | CCCN1C(=O)C(O)C(O)C(O)C1CNC(=O)NC(C)C [Compound No. 30, 6-N-{[Isopropyl]aminocarbonylamino}-N-propyl-D-gluco-δ-lactam] | 209 µM | 119 µM | 100 µM | 180 µM | 42.6 µM | 226 µM
19 | CCCN1C(=O)[C@H](O)[C@@H](O)[C@H](O)[C@H]1CNC(=O)Nc1ccc(C(F)(F)F)cc1 [Compound No. 31, 6-N-{[4-Trifluoromethylphenyl]aminocarbonylamino}-N-propyl-D-gluco-δ-lactam] | 131 µM | 113 µM | 82.2 µM | 139 µM | 79.5 µM | 132 µM
20 | CCCN1C[C@H](OCc2ccccc2)[C@@H](OCc2ccccc2)[C@H](OCc2ccccc2)[C@H]1CNC(=O)Nc1ccc(Cl)cc1 [Compound No. 36] | 19.1 µM | 16.7 µM | 11.7 µM | 0.3 µM | 0.8 µM | 0.9 µM
